Measurements taken from patent US20090028925A1, “Novel Phosphinic Acid-Containing Thyromimetics” (priority 2005, published 2009).

Columns and labels:
[1] = target: T1, human thyroid hormone receptors TRα1 (Homo sapiens, UniProt P10827); assay: Receptor binding to TRα1 (gel filtration and scintillation proximity assay, labeled T3); details: SPA data; read-out: Ki TRα
T1 construct: made in house; host or cells: Sf9 insect cells (baculovirus)
T1 sequence (P10827 1-410 isoform P10827-2): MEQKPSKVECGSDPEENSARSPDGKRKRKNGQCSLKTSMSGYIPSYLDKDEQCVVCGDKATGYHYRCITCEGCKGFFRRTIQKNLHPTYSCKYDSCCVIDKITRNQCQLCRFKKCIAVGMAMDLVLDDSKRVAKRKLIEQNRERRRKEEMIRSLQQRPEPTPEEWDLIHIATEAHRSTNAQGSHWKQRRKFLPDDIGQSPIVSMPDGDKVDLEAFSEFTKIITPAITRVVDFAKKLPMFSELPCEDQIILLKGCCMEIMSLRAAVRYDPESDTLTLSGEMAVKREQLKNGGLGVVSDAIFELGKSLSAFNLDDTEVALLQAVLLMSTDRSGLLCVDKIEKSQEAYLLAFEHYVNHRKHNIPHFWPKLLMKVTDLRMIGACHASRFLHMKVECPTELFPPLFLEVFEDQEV
T1 sequence (P19793 1-462 partner): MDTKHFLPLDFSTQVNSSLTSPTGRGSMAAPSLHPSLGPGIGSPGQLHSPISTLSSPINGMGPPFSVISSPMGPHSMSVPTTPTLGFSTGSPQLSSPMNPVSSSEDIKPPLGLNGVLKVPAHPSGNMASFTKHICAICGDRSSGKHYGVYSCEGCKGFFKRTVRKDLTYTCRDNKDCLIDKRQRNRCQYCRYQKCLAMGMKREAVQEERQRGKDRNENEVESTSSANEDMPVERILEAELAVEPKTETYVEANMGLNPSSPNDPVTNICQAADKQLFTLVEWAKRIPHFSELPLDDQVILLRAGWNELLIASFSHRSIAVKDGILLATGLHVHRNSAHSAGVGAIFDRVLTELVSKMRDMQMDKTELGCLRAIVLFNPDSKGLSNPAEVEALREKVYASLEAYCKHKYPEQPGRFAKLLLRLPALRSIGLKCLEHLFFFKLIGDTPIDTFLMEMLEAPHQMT

[2] = target: T2, human thyroid hormone receptors TRβ1 (Homo sapiens, UniProt P10828); assay: Receptor binding to TRβ1 (gel filtration and scintillation proximity assay, labeled T3); details: SPA data; read-out: Ki TRβ
T2 construct: made in house; host or cells: Sf9 insect cells (baculovirus)
T2 sequence (P10828 1-461): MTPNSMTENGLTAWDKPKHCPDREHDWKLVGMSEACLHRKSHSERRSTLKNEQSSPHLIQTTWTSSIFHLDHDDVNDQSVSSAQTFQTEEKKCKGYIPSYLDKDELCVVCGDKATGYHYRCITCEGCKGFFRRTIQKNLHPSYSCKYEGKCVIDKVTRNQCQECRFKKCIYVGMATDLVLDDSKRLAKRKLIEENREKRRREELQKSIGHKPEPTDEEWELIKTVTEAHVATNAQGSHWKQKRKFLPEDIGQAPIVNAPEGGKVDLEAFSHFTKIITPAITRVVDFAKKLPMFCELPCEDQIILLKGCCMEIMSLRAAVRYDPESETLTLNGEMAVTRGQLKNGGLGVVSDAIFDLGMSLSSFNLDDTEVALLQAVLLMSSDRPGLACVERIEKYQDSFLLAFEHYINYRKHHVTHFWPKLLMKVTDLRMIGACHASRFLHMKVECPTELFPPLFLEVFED
T2 sequence (P19793 1-462 partner): T1 sequence (P19793 1-462 partner)

[3] = Subacute study in normal rats, continuous infusion: heart weight; format: in vivo, rats (Sprague-Dawley); details: continuous infusion 1 mg/kg/day
From the text: Efficacy endpoints include serum cholesterol, liver mitochondrial glycerol phosphate dehydrogenase (mGPDH) activity and the expression of relevant liver genes (e.g., the LDL-receptor, apoB, cpt-1, spot14 and apoAI). Safety parameters include heart weight, heart rate, heart mGPDH activity, the expression and key genes involved in cardiac structure and function (e.g., Serca2, HCN2, Kv1.5, MHCα, MHCβ, Alpha1c), and standard plasma chemistry analysis (liver enzymes, electrolytes, creatinine). Endocrine effects are monitored by analysis of serum thyroid stimulating hormone (TSH). [Taylor et al., Mol Pharmacol 52(3): 542-7 (1997); Weitzel et al., Eur J Biochem 268(14):4095-4103 (2001)]
Normal rats (Sprague-Dawley) were maintained on a standard diet. […] The compounds were brought up to an appropriate volume using PBS and BSA to maintain solubility within the pump. The compounds were chemically stable in the excipient at 37° C. for 7 days.
Values are expressed as percent of control. (Table 4)

[4] = Tissue distribution and pharmacokinetics following IP administration to normal rats; format: in vivo, SD rats; details: 10 mg/kg IP
From the text: At pre-selected time points following dosing, the rats were anesthetized using iso-fluorane and the peritoneal cavity was then opened and a blood sample was obtained from the abdominal vena cava. In addition, liver, kidney, and heart were excised and immersed in 3 volumes of cold 60% acetonitrile. The blood samples were briefly centrifuged and the plasma fraction was then extracted with 1.5 volumes of methanol, processed, and analyzed by LC-UV as described in Example G. The frozen liver, kidney, and heart tissue were homogenized in 60% v/v acetonitrile, centrifuged, and then analyzed by LC-UV. Pharmacokinetic parameters and AUC of the plasma and tissue concentration-time profiles were determined noncompartmentally by WinNonLin.

[5] = test system: thyroid stimulating hormone (TSH); assay: Circulating TSH in mice; format: in vivo; details: 10 mg/kg/d for 77 days
From the text: Another concern with synthetic thyromimetics is the suppression of the endogenous thyroid axis. Thyroid homeostasis is maintained by the action of thyroid releasing hormone (TRH) and thyroid stimulating hormone (TSH). […] Although this particular side effect has been noted, it has typically been treated with less concern than the cardiac safety issues. […] Therefore previous investigators have measured TSH levels when testing synthetic thyromimetics and have used a 30% decrease of TSH as the denominator in their therapeutic index calculations. […] Therefore, both compounds suppress TSH as doses lower than that required to decrease circulating cholesterol. […] However, 0.2 mg/kg/d of Compound 18 in 28 day treated ZDF rats, decreased TSH levels greater than 90%.

In the case of `Cc1cc(OCP(=O)(O)O)cc(C)c1Cc1ccc(O)c(C(C)C)c1` [Compound 7, [3,5-dimethyl-4-(4′-hydroxy-3′-iso-propylbenzyl)phenoxy]methylphosphonic acid], the Ki [1] is reported as 58 nM, the Ki [2] is reported as 3.3 nM and the “Heart Weight” value [3] is reported as 108% of control. The cardiac hypertrophy [3] was “did not cause cardiac hypertrophy”, the “Heart AUC” value [4] was 32.8 nmol·h/g and the “Kidney AUC” value [4] was 5.0 nmol·h/g. The “Liver AUC” value [4] was 301.7 nmol·h/g, the AUC ([4]; male, SD, rat, plasma) was 31600 ng·h/mL and the Cmax ([4]; male, SD, rat, plasma) was 26000 ng/mL. It also gave a Tmax ([4]; male, SD, rat, plasma) of 20 min, a CL/F ([4]; male, SD, rat, plasma, read-out: Cl(observed)/F (converted)) of 5.01 mL/min/kg and a Vd/F ([4]; male, SD, rat, plasma, read-out: Vz(observed)/F) of 0.401 L/kg. For the same compound, the AUMClast ([4]; plasma) was 33.7098 μg * hr^2/mL, the Tlast ([4]; plasma) was 4 h and the “decrease in TSH” value [5] was “no decrease in TSH was observed”.
